In the Kinase Knowledgebase extract (Sharma et al. 2016):

Molecular target: PIK3CD (Human) (UniProt O00329)
Assay: Assessment of PIK3CD Kinase Activity

PIK3CD (Human), sequence (O00329 whole entry, looked up): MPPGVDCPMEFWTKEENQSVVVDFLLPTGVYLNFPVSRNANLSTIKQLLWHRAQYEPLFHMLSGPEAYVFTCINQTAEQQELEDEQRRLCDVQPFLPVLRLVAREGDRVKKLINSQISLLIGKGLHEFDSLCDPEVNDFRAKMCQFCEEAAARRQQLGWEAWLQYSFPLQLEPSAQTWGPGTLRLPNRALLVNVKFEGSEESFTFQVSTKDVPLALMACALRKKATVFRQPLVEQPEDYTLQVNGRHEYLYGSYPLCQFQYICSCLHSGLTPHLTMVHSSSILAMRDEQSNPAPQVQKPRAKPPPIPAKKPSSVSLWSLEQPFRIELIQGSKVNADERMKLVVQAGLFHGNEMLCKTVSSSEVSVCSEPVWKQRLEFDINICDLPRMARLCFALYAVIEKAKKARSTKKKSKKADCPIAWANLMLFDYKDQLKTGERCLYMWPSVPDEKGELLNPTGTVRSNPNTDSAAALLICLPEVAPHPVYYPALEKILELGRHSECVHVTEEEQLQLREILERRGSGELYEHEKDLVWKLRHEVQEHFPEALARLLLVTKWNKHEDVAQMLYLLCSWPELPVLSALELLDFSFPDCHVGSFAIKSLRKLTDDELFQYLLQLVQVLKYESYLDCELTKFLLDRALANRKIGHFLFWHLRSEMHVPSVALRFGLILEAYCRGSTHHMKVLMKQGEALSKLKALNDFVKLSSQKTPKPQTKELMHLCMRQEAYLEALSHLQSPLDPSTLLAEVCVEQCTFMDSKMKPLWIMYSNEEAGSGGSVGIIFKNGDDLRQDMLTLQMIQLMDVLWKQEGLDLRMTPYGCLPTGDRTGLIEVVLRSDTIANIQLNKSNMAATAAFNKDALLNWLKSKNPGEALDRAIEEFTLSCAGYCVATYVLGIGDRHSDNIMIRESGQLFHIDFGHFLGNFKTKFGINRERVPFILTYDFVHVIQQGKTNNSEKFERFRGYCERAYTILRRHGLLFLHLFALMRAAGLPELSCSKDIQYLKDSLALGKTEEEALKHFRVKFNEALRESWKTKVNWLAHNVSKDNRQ

Row | SMILES | IC50 [nM]
1 | COCCOC1CCN(Cc2cc3nc(-c4cccc5[nH]ncc45)nc(N4CCOCC4)c3s2)CC1 | ≤ 100
2 | NC(=O)C1CCN(Cc2cc3nc(-c4cccc5[nH]ncc45)nc(N4CCOCC4)c3s2)CC1 | ≤ 100
3 | COCC1CCCN(Cc2cc3nc(-c4cccc5[nH]ncc45)nc(N4CCOCC4)c3s2)C1 (centres undefined) | ≤ 100
4 | Cc1ccc(CN2CCN(Cc3cc4nc(-c5cccc6[nH]ncc56)nc(N5CCOCC5)c4s3)CC2)o1 | ≤ 100
5 | CS(=O)(=O)C1CCN(Cc2cc3nc(-c4cccc5[nH]ncc45)nc(N4CCOCC4)c3s2)CC1 | ≤ 100
6 | c1cc(-c2nc(N3CCOCC3)c3sc(CN4CCC(Cn5ccnc5)CC4)cc3n2)c2cn[nH]c2c1 | ≤ 100
7 | C[C@@H]1CN(Cc2cc3nc(-c4cccc5[nH]ncc45)nc(N4CCOCC4)c3s2)C[C@H](C)N1Cc1ccccn1 | ≤ 100
8 | c1cc(-c2nc(N3CCOCC3)c3sc(CN4CCN(c5nccs5)CC4)cc3n2)c2cn[nH]c2c1 | ≤ 100
9 | [O-][n+]1cccc(CN2CCN(Cc3cc4nc(-c5cccc6[nH]ncc56)nc(N5CCOCC5)c4s3)CC2)c1 | ≤ 100
10 | CN(C)S(=O)(=O)N1CCN(Cc2cc3nc(-c4cccc5[nH]ncc45)nc(N4CCOCC4)c3s2)CC1 | ≤ 100
11 | c1ccc(CC2CCN(Cc3cc4nc(-c5cccc6[nH]ncc56)nc(N5CCOCC5)c4s3)CC2)nc1 | ≤ 100
12 | FC(F)(F)CN1CCN(Cc2cc3nc(-c4cccc5[nH]ncc45)nc(N4CCOCC4)c3s2)CC1 | ≤ 100
13 | CN(C)C(=O)N1CCN(Cc2cc3nc(-c4cccc5[nH]ccc45)nc(N4CCOCC4)c3s2)CC1 | ≤ 100
14 | COCC1CCN(Cc2cc3nc(-c4cccc5[nH]ncc45)nc(N4CCOCC4)c3s2)CC1 | ≤ 100
15 | c1cc(-c2nc(N3CCOCC3)c3sc(CN4CCC(N5CCOCC5)CC4)cc3n2)c2cn[nH]c2c1 | ≤ 100
16 | Cc1csc(CN2CCN(Cc3cc4nc(-c5cccc6[nH]ncc56)nc(N5CCOCC5)c4s3)CC2)n1 | ≤ 100
17 | Cc1cccc(CN2CCN(Cc3cc4nc(-c5cccc6[nH]ncc56)nc(N5CCOCC5)c4s3)CC2)n1 | ≤ 100

Row | SMILES | IC50 [nM]
18 | c1cc(-c2nc(N3CCOCC3)c3sc(CN4CCNCC4)cc3n2)c2cc[nH]c2c1 | ≤ 100
19 | c1ccc(OC2CCN(Cc3cc4nc(-c5cccc6[nH]ncc56)nc(N5CCOCC5)c4s3)CC2)nc1 | ≤ 100
20 | OC1(c2nccs2)CCN(Cc2cc3nc(-c4cccc5[nH]ncc45)nc(N4CCOCC4)c3s2)CC1 | ≤ 100
21 | CN(C)C1CCN(Cc2cc3nc(-c4cccc5[nH]ccc45)nc(N4CCOCC4)c3s2)CC1 | ≤ 100
22 | c1cc(-c2nc(N3CCOCC3)c3sc(CN4CCC(CN5CCOCC5)CC4)cc3n2)c2cn[nH]c2c1 | ≤ 100
23 | COCCN(C1CCN(Cc2cc3nc(-c4cccc5[nH]ncc45)nc(N4CCOCC4)c3s2)CC1)S(C)(=O)=O | ≤ 100
24 | COCCN1[C@H](C)CN(Cc2cc3nc(-c4cccc5[nH]ncc45)nc(N4CCOCC4)c3s2)C[C@@H]1C | ≤ 100
25 | c1cc(-c2nc(N3CCOCC3)c3sc(CN4CCC(N5CCCCC5)CC4)cc3n2)c2cn[nH]c2c1 | ≤ 100
26 | CS(=O)(=O)N1CCN(Cc2cc3nc(-c4cccc5[nH]ncc45)nc(N4CCOCC4)c3s2)CC1CO (centres undefined) | ≤ 100
27 | O=S(=O)(CCCN1CCOCC1)N1CCN(Cc2cc3nc(-c4cccc5[nH]ncc45)nc(N4CCOCC4)c3s2)CC1 | ≤ 100
28 | OCCN1CCN(Cc2cc3nc(-c4cccc5[nH]ccc45)nc(N4CCOCC4)c3s2)CC1 | ≤ 100
29 | COCCN(C)C(=O)N1CCN(Cc2cc3nc(-c4cccc5[nH]ccc45)nc(N4CCOCC4)c3s2)CC1 | ≤ 100
30 | CNC(=O)[C@@H]1CCCN(Cc2cc3nc(-c4cccc5[nH]ncc45)nc(N4CCOCC4)c3s2)C1 | ≤ 100
31 | CC1CCCN(Cc2cc3nc(-c4cccc5[nH]ncc45)nc(N4CCOCC4)c3s2)C1 (centres undefined) | ≤ 100
32 | [O-][n+]1ccccc1CN1CCN(Cc2cc3nc(-c4cccc5[nH]ncc45)nc(N4CCOCC4)c3s2)CC1 | ≤ 100
33 | CN(C)C(=O)CN1CCN(Cc2cc3nc(-c4cccc5[nH]ccc45)nc(N4CCOCC4)c3s2)CC1 | ≤ 100
34 | CN(C)C(=O)CN1CCN(Cc2cc3nc(-c4cccc5[nH]ncc45)nc(N4CCOCC4)c3s2)CC1 | ≤ 100
